Laboratory results taken from PubChem BioAssay AID330 (DTP/NCI, 2004).
Where “and” joins values, the source holds several entries; their conditions need not be identical. Equal values may be shown once. Inconclusive results and toxic doses are left out. Peptide text beside a SMILES is read from it. * marks the point of attachment. Cbz = O=C(OCc1ccccc1)*

Tested on: P388 leukemia ip, CD2F1 mice, survival T/C
Experiment: NCI In Vivo Anticancer Drug Screen. Data for tumor model P388 Leukemia (intraperitoneal) in CD2F1 (CDF1) mice
Conditions: endpoint: median survival time, higher = longer survival
Procedure, shortened: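 Mice carrying the transplanted tumor received test compound or vehicle. Survival was recorded in each group, and the value is the treated-group measurement divided by that of the vehicle-treated control group.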

[1] = dose: 50.0 mg/kg/injection, schedule: Q01DX005 (ip), vehicle: saline with Tween-80
[2] = dose: 100.0 mg/kg/injection, schedule: Q01DX005 (ip), vehicle: saline with Tween-80
[3] = dose: 60.0 mg/kg/injection, schedule: Q01DX005 (ip), vehicle: saline with Tween-80
[4] = dose: 120.0 mg/kg/injection, schedule: Q01DX005 (ip), vehicle: saline with Tween-80
[5] = dose: 240.0 mg/kg/injection, schedule: Q01DX005 (ip), vehicle: saline with Tween-80
[6] = dose: 200.0 mg/kg/injection, schedule: Q01DX005 (ip), vehicle: saline with Tween-80
[7] = dose: 50.0 mg/kg/injection, schedule: Q01DX009 (ip), vehicle: saline
[8] = dose: 6.25 mg/kg/injection, schedule: Q01DX009 (ip), vehicle: saline with Tween-80
[9] = dose: 12.5 mg/kg/injection, schedule: Q01DX009 (ip), vehicle: saline with Tween-80
[10] = dose: 50.0 mg/kg/injection, schedule: Q01DX005 (ip), vehicle: Klucel (hydroxypropylcellulose) (HPC)
[11] = dose: 100.0 mg/kg/injection, schedule: Q01DX005 (ip), vehicle: Klucel (hydroxypropylcellulose) (HPC)
[12] = dose: 200.0 mg/kg/injection, schedule: Q01DX005 (ip), vehicle: Klucel (hydroxypropylcellulose) (HPC)
[13] = dose: 100.0 mg/kg/injection, schedule: Q01DX009 (ip), vehicle: saline
[14] = dose: 25.0 mg/kg/injection, schedule: Q01DX009 (ip), vehicle: saline with Tween-80

## CC(=O)OCC12CC(c3ccoc3)OC3CCC4C(=O)OC(CC1C)C4(C)C32 (stereo unspecified)
dose: 5.25 mg/kg/injection, schedule: Q01DX005 (ip), vehicle: Klucel (hydroxypropylcellulose) (HPC)
  T/C: 106 % of control
dose: 10.5 mg/kg/injection, schedule: Q01DX005 (ip), vehicle: Klucel (hydroxypropylcellulose) (HPC)
  T/C: 95 % of control
dose: 21.0 mg/kg/injection, schedule: Q01DX005 (ip), vehicle: Klucel (hydroxypropylcellulose) (HPC)
  T/C: 100 % of control
dose: 42.0 mg/kg/injection, schedule: Q01DX005 (ip), vehicle: Klucel (hydroxypropylcellulose) (HPC)
  T/C: 93 % of control

## CN(C)CC1CCc2c(ccc3ccccc23)C1=O (stereo unspecified)
dose: 12.5 mg/kg/injection, schedule: Q01DX005 (ip), vehicle: saline with Tween-80
  T/C: 100 % of control
dose: 25.0 mg/kg/injection, schedule: Q01DX005 (ip), vehicle: saline with Tween-80
  T/C: 103 % of control
[1]
  T/C: 100 % of control
[2]
  T/C: 104 % of control

## COc1ccc2c(c1)C=CC1OC(C(C)=O)(C(C)=O)C(C=O)=CN21 (stereo unspecified)
[3]
  T/C: 92 % of control
[4]
  T/C: 89 % of control
[5]
  T/C: 98 % of control

## Cc1cc(O)c(C=Nc2ccccc2C)c(=O)o1
[1]
  T/C: 102 % of control
[2]
  T/C: 103 % of control
[6]
  T/C: 105 % of control

## N#CC[n+]1ccc2ccccc2c1
dose: 12.5 mg/kg/injection, schedule: Q01DX009 (ip), vehicle: saline
  T/C: 105 % of control
dose: 25.0 mg/kg/injection, schedule: Q01DX009 (ip), vehicle: saline
  T/C: 99 % of control
[7]
  T/C: 101 % of control

## CC(C)N(C(=O)SCC(Cl)=C(Cl)Cl)C(C)C
[3]
  T/C: 100 % of control
[4]
  T/C: 103 % of control
[5]
  T/C: 102 % of control

## COC1CC(OC2CCC3(C)C(CCC45CCC(C6=CC(=O)OC6)C(C)(CCC43)C5=O)C2)OC(C)C1O (stereo unspecified)
dose: 1.56 mg/kg/injection, schedule: Q01DX005 (ip), vehicle: Klucel (hydroxypropylcellulose) (HPC)
  T/C: 90 % of control
dose: 3.12 mg/kg/injection, schedule: Q01DX005 (ip), vehicle: Klucel (hydroxypropylcellulose) (HPC)
  T/C: 97 % of control
dose: 6.25 mg/kg/injection, schedule: Q01DX005 (ip), vehicle: Klucel (hydroxypropylcellulose) (HPC)
  T/C: 100 % of control
dose: 12.5 mg/kg/injection, schedule: Q01DX005 (ip), vehicle: Klucel (hydroxypropylcellulose) (HPC)
  T/C: 88 % of control and 91 % of control

## Cc1ccc2ncc(C)c(/C=C/c3ccc(N(C)C)cc3)c2c1
dose: 50.0 mg/kg/injection, schedule: Q01DX001 (ip), vehicle: saline with Tween-80
  T/C: 108 % of control
dose: 100.0 mg/kg/injection, schedule: Q01DX001 (ip), vehicle: saline with Tween-80
  T/C: 112 % of control
dose: 200.0 mg/kg/injection, schedule: Q01DX001 (ip), vehicle: saline with Tween-80
  T/C: 122 % of control

## C=CC[P+](Cc1cccc(C)c1)(c1ccccc1)c1ccccc1
dose: 0.78 mg/kg/injection, schedule: Q01DX009 (ip), vehicle: saline
  T/C: 99 % of control
dose: 1.56 mg/kg/injection, schedule: Q01DX009 (ip), vehicle: saline
  T/C: 111 % of control
dose: 3.13 mg/kg/injection, schedule: Q01DX009 (ip), vehicle: saline
  T/C: 104 % of control

## CC(=O)OCC1OC([Se][As](C)C)C(OC(C)=O)C(OC(C)=O)C1OC(C)=O (stereo unspecified)
dose: 1.56 mg/kg/injection, schedule: Q01DX009 (ip), vehicle: saline with Tween-80
  T/C: 95 % of control
dose: 3.13 mg/kg/injection, schedule: Q01DX009 (ip), vehicle: saline with Tween-80
  T/C: 95 % of control
[8]
  T/C: 99 % of control
dose: 11.0 mg/kg/injection, schedule: Q01DX009 (ip), vehicle: saline with Tween-80
  T/C: 104 % of control
[9]
  T/C: 99 % of control
dose: 16.6 mg/kg/injection, schedule: Q01DX009 (ip), vehicle: saline with Tween-80
  T/C: 110 % of control
dose: 37.5 mg/kg/injection, schedule: Q01DX009 (ip), vehicle: saline with Tween-80
  T/C: 119 % of control

## CN1CCN(c2nc3cccnc3s2)CC1
dose: 25.0 mg/kg/injection, schedule: Q04DX003 (ip), vehicle: saline with Tween-80
  T/C: 106 % of control
dose: 50.0 mg/kg/injection, schedule: Q04DX003 (ip), vehicle: saline with Tween-80
  T/C: 101 % of control
dose: 100.0 mg/kg/injection, schedule: Q04DX003 (ip), vehicle: saline with Tween-80
  T/C: 100 % of control

## O=C(/C=C/c1ccccc1)c1ccccc(=O)c1O
[10]
  T/C: 105 % of control
[11]
  T/C: 113 % of control
[12]
  T/C: 104 % of control

## O=C(NC(Cc1cnc[nH]1)C(=O)NC(Cc1ccc(O)cc1)C(=O)O)OCc1ccccc1 (stereo not drawn) (Cbz-His-Tyr-OH; configuration not given here)
[10]
  T/C: 93 % of control
[11]
  T/C: 95 % of control
[12]
  T/C: 92 % of control

## COC(=O)OC(C#N)c1cccc([N+](=O)[O-])c1 (stereo unspecified)
dose: 25.0 mg/kg/injection, schedule: Q01DX009 (ip), vehicle: suspension in saline
  T/C: 101 % of control
dose: 50.0 mg/kg/injection, schedule: Q01DX009 (ip), vehicle: suspension in saline
  T/C: 98 % of control
[13]
  T/C: 94 % of control
dose: 100.0 mg/kg/injection, schedule: Q01DX009 (ip), vehicle: suspension in saline
  T/C: 104 % of control

## Nc1nc(-c2ccc(Nc3ccnc4cc(Cl)ccc34)cc2)cs1
[1]
  T/C: 96 % of control
[2]
  T/C: 88 % of control
[6]
  T/C: 86 % of control

## CCOc1ccc(N=c2ccn3ccccc3c2)cc1
[8]
  T/C: 102 % of control
[9]
  T/C: 110 % of control
[14]
  T/C: 111 % of control

## CC(=O)O/N=C/c1cc[n+](C)cc1
dose: 25.0 mg/kg/injection, schedule: Q04DX003 (ip), vehicle: saline
  T/C: 105 % of control
dose: 50.0 mg/kg/injection, schedule: Q04DX003 (ip), vehicle: saline
  T/C: 101 % of control
dose: 100.0 mg/kg/injection, schedule: Q04DX003 (ip), vehicle: saline
  T/C: 90 % of control

## COc1ccc(OC)c(NC(=O)Oc2cccc(NC(C)=O)c2)c1
[14]
  T/C: 105 % of control
dose: 50.0 mg/kg/injection, schedule: Q01DX009 (ip), vehicle: saline with Tween-80
  T/C: 106 % of control
dose: 100.0 mg/kg/injection, schedule: Q01DX009 (ip), vehicle: saline with Tween-80
  T/C: 104 % of control
dose: 200.0 mg/kg/injection, schedule: Q01DX009 (ip), vehicle: saline with Tween-80
  T/C: 107 % of control
dose: 400.0 mg/kg/injection, schedule: Q01DX009 (ip), vehicle: saline with Tween-80
  T/C: 104 % of control

## CCOC(=O)c1c[nH]c2c(ccc3cccnc32)c1=O
dose: 15.0 mg/kg/injection, schedule: Q01DX005 (ip), vehicle: Klucel (hydroxypropylcellulose) (HPC)
  T/C: 99 % of control
dose: 30.0 mg/kg/injection, schedule: Q01DX005 (ip), vehicle: Klucel (hydroxypropylcellulose) (HPC)
  T/C: 99 % of control
[7]
  T/C: 99 % of control
dose: 60.0 mg/kg/injection, schedule: Q01DX005 (ip), vehicle: Klucel (hydroxypropylcellulose) (HPC)
  T/C: 99 % of control and 97 % of control
[13]
  T/C: 117 % of control
dose: 200.0 mg/kg/injection, schedule: Q01DX009 (ip), vehicle: saline
  T/C: 99 % of control

## Cc1ccc(S(=O)(=O)NN=C(c2ccccc2)c2ccccc2)cc1
dose: 12.5 mg/kg/injection, schedule: Q01DX009 (ip), vehicle: Klucel (hydroxypropylcellulose) (HPC)
  T/C: 98 % of control
dose: 25.0 mg/kg/injection, schedule: Q01DX009 (ip), vehicle: Klucel (hydroxypropylcellulose) (HPC)
  T/C: 93 % of control
dose: 50.0 mg/kg/injection, schedule: Q01DX009 (ip), vehicle: Klucel (hydroxypropylcellulose) (HPC)
  T/C: 87 % of control
dose: 100.0 mg/kg/injection, schedule: Q01DX009 (ip), vehicle: Klucel (hydroxypropylcellulose) (HPC)
  T/C: 88 % of control
dose: 200.0 mg/kg/injection, schedule: Q01DX009 (ip), vehicle: Klucel (hydroxypropylcellulose) (HPC)
  T/C: 86 % of control

## COC1/C=C/C=C(/C)Cc2cc(O)c(Cl)c(c2)N(C)C(=O)CC(OC(=O)C(C)C)C2(C)OC2C(C)C2CC1(O)NC(=O)O2 (stereo unspecified)
dose: 50.0 micrograms/kg/injection, schedule: Q01DX009 (ip), vehicle: saline + alcohol
  T/C: 153 % of control
dose: 100.0 micrograms/kg/injection, schedule: Q01DX009 (ip), vehicle: saline + alcohol
  T/C: 177 % of control and 190 % of control
dose: 200.0 micrograms/kg/injection, schedule: Q01DX009 (ip), vehicle: saline + alcohol
  T/C: 185 % of control and 221 % of control
dose: 400.0 micrograms/kg/injection, schedule: Q01DX009 (ip), vehicle: saline + alcohol
  T/C: 177 % of control and 230 % of control
dose: 800.0 micrograms/kg/injection, schedule: Q01DX009 (ip), vehicle: saline + alcohol
  T/C: 192 % of control and 205 % of control
dose: 1000.0 micrograms/kg/injection, schedule: Q01DX009 (ip), vehicle: saline + alcohol
  T/C: 182 % of control
